According to ChEMBL document CHEMBL1138922, “Nepsilon-thioacetyl-lysine: a multi-facet functional probe for enzymatic protein lysine Nepsilon-deacetylation” (Bioorg Med Chem Lett, 2006):
Activity calls are given as the source filed them. The rule behind the calls is not given here.

How the values were obtained:
[1] = target: T1, NAD-dependent protein deacetylase sirtuin-1 (Homo sapiens) (UniProt Q96EB6); test: (§1) Inhibition of human SIRT1
T1 sequence (whole entry): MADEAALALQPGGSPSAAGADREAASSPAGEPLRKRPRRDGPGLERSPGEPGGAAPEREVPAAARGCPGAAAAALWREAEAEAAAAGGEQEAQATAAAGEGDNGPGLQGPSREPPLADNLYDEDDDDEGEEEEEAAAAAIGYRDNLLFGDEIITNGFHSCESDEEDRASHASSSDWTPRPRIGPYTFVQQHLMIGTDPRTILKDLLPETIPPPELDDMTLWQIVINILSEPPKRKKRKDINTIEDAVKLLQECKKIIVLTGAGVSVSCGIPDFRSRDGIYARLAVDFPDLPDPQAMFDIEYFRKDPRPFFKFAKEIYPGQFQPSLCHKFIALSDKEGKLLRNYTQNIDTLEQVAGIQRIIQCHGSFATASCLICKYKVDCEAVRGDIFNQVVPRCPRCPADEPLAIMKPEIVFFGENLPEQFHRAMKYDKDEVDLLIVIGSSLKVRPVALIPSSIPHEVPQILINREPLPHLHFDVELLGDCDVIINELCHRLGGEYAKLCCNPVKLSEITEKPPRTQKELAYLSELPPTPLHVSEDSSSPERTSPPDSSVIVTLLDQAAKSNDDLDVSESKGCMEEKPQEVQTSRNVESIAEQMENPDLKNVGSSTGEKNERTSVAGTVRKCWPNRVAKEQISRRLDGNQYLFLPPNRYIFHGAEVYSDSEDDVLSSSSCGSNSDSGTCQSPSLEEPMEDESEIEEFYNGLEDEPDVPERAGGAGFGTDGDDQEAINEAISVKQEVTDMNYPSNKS

[2] = target: T2, NAD-dependent protein deacetylase sirtuin-1 (Homo sapiens, UniProt Q96EB6); test: as §1
T2 sequence (Q96EB6 whole entry): T1 sequence (whole entry)

[3] = target: T1, NAD-dependent protein deacetylase sirtuin-1 (Homo sapiens); test: Inhibition of human SIRT1 at 2 mM

With `C/C(S)=N/CCCC[C@H](NC(=O)OCC1c2ccccc2-c2ccccc21)C(=O)O` the IC25 [1] was 2000 µM.
Compound `CSCC[C@H](NC(=O)[C@H](CC(C)C)NC(=O)[C@H](CCCC/N=C(/C)S)NC(=O)[C@H](CCCCN)NC(=O)[C@H](Cc1c[nH]cn1)NC(=O)[C@H](CCCN=C(N)N)NC(=O)[C@H](CO)NC(=O)[C@@H](NC(=O)[C@H](CO)NC(=O)[C@H](CCC(N)=O)NC(=O)CNC(=O)[C@H](CCCCN)NC(=O)[C@@H](N)CCCCN)[C@@H](C)O)C(=O)N[C@@H](Cc1ccccc1)C(=O)N[C@@H](CCCCN)C(=O)N[C@H](C(=O)N[C@@H](CCC(=O)O)C(=O)NCC(=O)O)[C@@H](C)O` has an IC50 [2] of 2 µM.
For `CC(=O)N[C@@H](CCCC/N=C(/C)S)C(=O)O`, the Activity [3] was “inactive”.
